In patent publication US20210116454A1, “METHODS FOR TREATING A HEMATOLOGICAL CANCER AND THE USE OF COMPANION BIOMARKERS FOR 2-(2,6-DIOXOPIPERIDIN-3-YL)-4-((2-FLUORO-4-((3-MORPHOLINOAZETIDIN-1-YL)METHYL)BENZYL)AMINO)ISOINDOLINE-1,3-DIONE” (CELGENE CORPORATION, priority 2019, published 2021):
Where two headings read alike, the source gives them in different places.

Tests used:
Type in all cases: cell-based
SU-DHL-6 = assay: 5-day viable cell number and apoptosis (7-AAD exclusion/Annexin V flow cytometry); details: SU-DHL-6 cells, 5 days
Procedure, shortened: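 DLBCL lines were exposed to increasing compound doses for five days. Viable cell number was then counted, and apoptosis was scored by flow cytometry using 7-AAD exclusion with Annexin V staining.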

Aiolos = molecular target: T1, Aiolos (Homo sapiens, UniProt Q96SW2+Q9UKT9); assay: Enzyme fragment complementation (EFC) degradation assay, DF15 cells expressing ePL-tagged substrate; details: for Emax: DF15, DF15 ePL-Aiolos, remaining substrate; for DC50: DF15 ePL-Aiolos, read-out: Aiolos degradation EC50
T1 construct: expressed in transfected cells; host or cells: DF15 cells

Ikaros = Ikaros (Homo sapiens, UniProt Q13422+Q96SW2); assay: Ikaros protein level by flow cytometry during ex vivo myeloid differentiation
Excerpt: Ikaros protein levels were monitored during periods of Compound 1 exposure and recovery. Ikaros levels were reduced during Compound 1 exposure and recovered following drug withdrawal in a concentration-dependent manner with no significant differences noted in association with different exposure schedules (FIG. 21; FIG. 22). Ikaros levels began returning to normal after at least 3 days following washout, predating full recovery of maturation of late-stage neutrophil precursors (FIG. 23). […] Accordingly, Ikaros levels in neutrophils can serve as a marker for response to Compound 1.
Ikaros protein level was analyzed by flow cytometry every two or three days. As shown in FIG. 21 and FIG. 22, Ikaros protein was degraded under both Compound 1 treatment schedules (14 days and 5 days) and its expression was restored after drug washout in a concentration dependent manner.

SU-DHL-2^CRBN−/− cells = assay: Western blot time- and concentration-response in cereblon knockout cells
Excerpt: However, Compound 1 had no activity in SU-DHL-2^CRBN−/− cells, indicating the requirement of cereblon for induction of apoptosis by Compound 1 in DLBCL (FIG. 5 C).

[1] = tested on: CRBN^WT and CRBN^−/− DLBCL cells; assay: Proliferation of CRBN^WT and CRBN^−/− DLBCL cells (six lines)
Excerpt: The activated B-cell (ABC) and MYC/BCL2 double expressor cell lines SU-DHL-2 and RIVA, the germinal center B-cell (GCB) and MYC/BCL2 double hit cell lines (and expressing BCL6) Karpas-422, SU-DHL-10, WSU-DLCL2, and the primary mediastinal B-cell lymphoma (PMBL) cell line Farage were infected with a CAS9 expressing lentivirus construct to generate the control CAS9 expressing cells. The Cas9 cells had wild type cereblon expression (CRBN^WT).
To generate the cereblon knock out cells (CRBN^−/−), the individual control CAS9 cells were infected with a construct expressing a subgenomic single guide RNA (sgRNA). Western blot analysis confirmed the absence of cereblon protein in the CRBN^−/− cells, relative to the levels of the housekeeping protein β-tubulin. The CRBN^WT and CRBN^−/− cells were treated with increasing concentrations of Compound 1 for five days.

[2] = tested on: bone marrow CD34+ cells from healthy donors; assay: Ex vivo maturation of myeloid progenitors to neutrophils (flow cytometry)
Experimental: The effects of Compound 1 on maturation of myeloid progenitors to neutrophils were assessed in ex vivo cultures of bone marrow CD34+ cells from healthy donors and different dosing schedules were evaluated to gain insight into the schedule dependence of these events.
Myeloid differentiation was induced by adding stem cell factor (SCF), FMS-related tyrosine kinase 3 ligand (FLT3-L), and granulocyte colony stimulating factor (G-CSF) to culture media. Cell differentiation in the presence or absence of Compound 1 was evaluated at prespecified time points by flow cytometry as the percentage of cells in 5 subpopulations: (1) hematopoietic stem cells (HSC, CD34+/CD33−/CD11b−); (2) Stage I cells (CD34+/CD33+/CD11b−); (3) Stage II cells (CD34−/CD33+/CD11b−); (4) Stage III cells (CD34−/CD33+/CD11b+) and (5) Stage IV cells (CD34−/CD33−/CD11b+) cells (from immature to mature). Differentiation and viability were monitored during the complete assay every two or three days.
However, the viability of neutrophil precursors exposed to Compound 1 was not affected (FIG. 18).
Recovery of mature neutrophils after Compound 1 exposure was also evaluated in the system.

T1 sequence (Q9UKT9 whole entry, the tested form may be a part): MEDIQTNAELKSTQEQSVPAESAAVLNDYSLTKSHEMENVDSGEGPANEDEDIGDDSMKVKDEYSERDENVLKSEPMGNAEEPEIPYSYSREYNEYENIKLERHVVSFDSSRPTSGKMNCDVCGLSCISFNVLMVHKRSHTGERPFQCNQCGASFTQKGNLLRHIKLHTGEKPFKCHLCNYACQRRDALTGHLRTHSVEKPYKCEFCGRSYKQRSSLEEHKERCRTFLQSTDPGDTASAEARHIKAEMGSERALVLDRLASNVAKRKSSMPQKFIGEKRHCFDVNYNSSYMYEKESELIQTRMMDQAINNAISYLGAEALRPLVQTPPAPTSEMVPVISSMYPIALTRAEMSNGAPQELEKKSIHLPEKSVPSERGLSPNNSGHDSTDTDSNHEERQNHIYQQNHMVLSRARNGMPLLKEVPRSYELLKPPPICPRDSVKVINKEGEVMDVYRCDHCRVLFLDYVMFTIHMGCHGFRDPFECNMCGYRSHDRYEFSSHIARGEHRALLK
T1 sequence (Q96SW2 whole entry, the tested form may be a part): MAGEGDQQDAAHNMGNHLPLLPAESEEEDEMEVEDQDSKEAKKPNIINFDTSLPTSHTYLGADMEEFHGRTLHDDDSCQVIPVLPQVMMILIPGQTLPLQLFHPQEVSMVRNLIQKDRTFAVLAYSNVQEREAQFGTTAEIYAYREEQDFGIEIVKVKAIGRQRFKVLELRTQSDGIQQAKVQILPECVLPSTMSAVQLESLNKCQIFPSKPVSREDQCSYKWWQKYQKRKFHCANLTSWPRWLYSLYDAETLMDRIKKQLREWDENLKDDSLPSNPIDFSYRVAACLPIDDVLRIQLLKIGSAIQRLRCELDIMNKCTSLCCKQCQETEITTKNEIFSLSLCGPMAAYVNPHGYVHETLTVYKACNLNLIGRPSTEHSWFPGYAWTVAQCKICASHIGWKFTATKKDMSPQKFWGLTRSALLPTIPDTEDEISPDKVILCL
T1 sequence (Q16531 whole entry partner, the tested form may be a part): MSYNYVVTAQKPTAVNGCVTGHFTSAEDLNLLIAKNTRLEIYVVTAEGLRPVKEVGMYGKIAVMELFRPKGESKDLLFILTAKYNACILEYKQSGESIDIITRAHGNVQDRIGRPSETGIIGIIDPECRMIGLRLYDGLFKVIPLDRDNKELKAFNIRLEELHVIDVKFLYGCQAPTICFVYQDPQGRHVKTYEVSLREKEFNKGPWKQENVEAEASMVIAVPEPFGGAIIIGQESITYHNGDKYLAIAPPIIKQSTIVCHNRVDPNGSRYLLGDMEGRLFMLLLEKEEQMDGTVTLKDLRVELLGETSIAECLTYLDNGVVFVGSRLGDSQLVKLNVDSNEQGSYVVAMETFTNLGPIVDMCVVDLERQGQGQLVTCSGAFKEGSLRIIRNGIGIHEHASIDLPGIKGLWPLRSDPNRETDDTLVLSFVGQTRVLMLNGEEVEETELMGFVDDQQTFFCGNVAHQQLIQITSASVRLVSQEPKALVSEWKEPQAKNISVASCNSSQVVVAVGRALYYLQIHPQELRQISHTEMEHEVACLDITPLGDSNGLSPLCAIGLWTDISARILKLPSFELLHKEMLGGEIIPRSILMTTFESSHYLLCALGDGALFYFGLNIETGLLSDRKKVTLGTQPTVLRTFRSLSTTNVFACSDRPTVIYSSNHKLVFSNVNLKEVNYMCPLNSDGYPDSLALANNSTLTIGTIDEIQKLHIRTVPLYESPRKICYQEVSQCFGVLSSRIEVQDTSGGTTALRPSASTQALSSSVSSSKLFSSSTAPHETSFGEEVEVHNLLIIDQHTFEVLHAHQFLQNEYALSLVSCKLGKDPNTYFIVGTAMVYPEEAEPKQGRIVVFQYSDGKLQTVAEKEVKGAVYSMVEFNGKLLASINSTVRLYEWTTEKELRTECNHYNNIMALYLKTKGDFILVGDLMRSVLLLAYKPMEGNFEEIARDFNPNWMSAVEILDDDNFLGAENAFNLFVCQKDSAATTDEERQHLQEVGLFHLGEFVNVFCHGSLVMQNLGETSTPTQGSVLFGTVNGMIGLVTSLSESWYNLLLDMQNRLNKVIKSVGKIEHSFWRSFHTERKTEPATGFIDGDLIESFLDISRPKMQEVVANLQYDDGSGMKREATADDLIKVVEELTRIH
Ikaros, sequence (Q13422 whole entry): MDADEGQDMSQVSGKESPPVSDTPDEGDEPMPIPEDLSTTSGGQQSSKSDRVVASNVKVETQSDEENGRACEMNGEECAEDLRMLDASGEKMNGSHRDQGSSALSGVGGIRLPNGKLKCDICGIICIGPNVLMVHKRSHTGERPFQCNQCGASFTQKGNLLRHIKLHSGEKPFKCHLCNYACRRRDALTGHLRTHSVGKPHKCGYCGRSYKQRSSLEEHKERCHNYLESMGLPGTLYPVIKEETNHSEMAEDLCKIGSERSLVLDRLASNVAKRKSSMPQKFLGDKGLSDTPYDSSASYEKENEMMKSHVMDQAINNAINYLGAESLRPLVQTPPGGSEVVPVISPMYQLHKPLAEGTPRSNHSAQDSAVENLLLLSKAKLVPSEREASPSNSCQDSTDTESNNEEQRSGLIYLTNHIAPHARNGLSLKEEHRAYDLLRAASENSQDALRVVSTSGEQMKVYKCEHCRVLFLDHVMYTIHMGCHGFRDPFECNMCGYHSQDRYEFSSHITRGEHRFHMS
Ikaros, sequence (Q96SW2 whole entry): as the sequence (Q96SW2 whole entry, the tested form may be a part) above
Ikaros, sequence (Q16531 whole entry partner): as the sequence (Q16531 whole entry partner, the tested form may be a part) above

What does the source list for `O=C1CC[C@H](N2C(=O)c3cccc(NCc4ccc(CN5CC(N6CCOCC6)C5)cc4F)c3C2=O)C(=O)N1` [Compound 1, (S)-2-(2,6-dioxopiperidin-3-yl)-4-((2-fluoro-4-((3-morpholinoazetidin-1-yl)methyl)benzyl)amino)isoindoline-1,3-dione]?
EC50 (SU-DHL-6; Homo sapiens, 120 h): 452000 pM; Emax (SU-DHL-6; Homo sapiens, 120 h): 46.3%; IC50 (SU-DHL-6; Homo sapiens, 120 h): 260000 pM; % Viable Cells AUC (SU-DHL-6): 88.38; % Viable Cells Emax (SU-DHL-6): 5.843%; % Viable Cells Sensitivity (SU-DHL-6): High (highly sensitive to Compound 1 with less than 6% viable cells remaining (Emax) after treatment); Apoptosis AUC (SU-DHL-6): 421.1; Apoptosis Sensitivity (SU-DHL-6): High; Emax (Aiolos; 1 hour): 60%; Emax (Aiolos; 2 hours): 16.5%; Emax (Aiolos; 6 hours): 6%; Emax (Aiolos; 24 hours): 7%; DC50 (Aiolos; 1 hour): 600 pM; DC50 (Aiolos; 2 hours): 500 pM; DC50 (Aiolos; 6 hours): 200 pM; DC50 (Aiolos; 24 hours): 200 pM; recovery of Ikaros protein (Ikaros; Day 19, all concentrations, after 14 days of treatment): complete recovery; time after washout at which Ikaros levels began returning to normal (Ikaros; neutrophil precursors, following washout): at least 3 days; activity in cereblon knockout cells (SU-DHL-2^CRBN−/− cells): no activity; IC50 ([1]; 120 h, six DLBCL lines, five days, read-out: IC50 in control CAS9 expressing cells (CRBN^WT)): 2500 to 40000 pM; effect of CRBN knock-out on antiproliferative activity ([1]; CRBN^−/− cells): blocked the antiproliferative activity; late-stage maturation of neutrophil progenitors ([2]; 14 or 5 days of exposure): blocked; Number of Days in Washout Period Required for Recovery to 50% of Stage IV Cells ([2]; 5 days treatment, 0.1 nM): 0 days; Number of Days in Washout Period Required for Recovery to 50% of Stage IV Cells ([2]; 5 days treatment, 1 nM): 1 days; Number of Days in Washout Period Required for Recovery to 50% of Stage IV Cells ([2]; 5 days treatment, 10 nM): 1 days; Number of Days in Washout Period Required for Recovery to 50% of Stage IV Cells ([2]; 5 days treatment, 1000 nM): 5 days; Number of Days in Washout Period Required for Recovery to 50% of Stage IV Cells ([2]; 14 days treatment, 0.1 nM): 0 days; Number of Days in Washout Period Required for Recovery to 50% of Stage IV Cells ([2]; 14 days treatment, 1 nM): 0 days; Number of Days in Washout Period Required for Recovery to 50% of Stage IV Cells ([2]; 14 days treatment, 100 nM): 4 days; Number of Days in Washout Period Required for Recovery to 50% of Stage IV Cells ([2]; 14 days treatment, 1000 nM): 4 days; viability of neutrophil precursors ([2]; Annexin V and 7-AAD, 14 or 5 days exposure): not affected; recovery of the proportion of mature neutrophils (Stage IV cells) from its nadir ([2]; after 1 week without Compound 1): ≥ 50%; recovery of Stage IV cells relative to Stage IV cell population in the DMSO control ([2]; one week without drug, all tested conditions): at least 50%
